Results: patent US8889130B2, “Treatment of osteoarthritis and pain” (Abbvie Inc., priority 2011, dated 2014)

How the values were obtained:
mice (male CD1) = test: L5/L6 spinal nerve ligation (SNL) model of neuropathic pain, mechanical allodynia; type: in vivo; details: mAbs 900 μg/mouse each, gabapentin 100 mg/kg, 1 hour pretreatment
Description: Whether an anti-IL-1α and anti-IL-1β mAb combination therapy would produce efficacy in neuropathic pain conditions was examined in an L5/L6 spinal nerve ligation (SNL) model in mice (male CD1). Testing was performed six days after SNL surgery, 24 and 72 hours after animals were treated with mAb combination (900 μg/mouse of each mAb). […] The magnitude of efficacy (% MPE) was 72.20±14.39% at 24 hours and 80.62±12.33% at 72 hours (FIG. 19).

female BALB/c mice = test: CFA (Complete Freund's Adjuvant) inflammatory pain model, mechanical allodynia (von Frey); type: in vivo, mouse; details: 48 hours after CFA, diclofenac 30 mg/kg
Description: The CFA (Complete Freund's Adjuvant) inflammatory pain model was used to test whether the anti-IL-1α and anti-IL-1β mAb combination would produce efficacy against a mechanical endpoint. Therefore, mechanical allodynia was assessed using von Frey monofilaments in animals (female BALB/c mice) 48 hours after they were injected intraplantar with CFA. […] Separate groups of animals were treated either with IgG isotype control or a combination of anti-IL-1α and anti-IL-1β mAbs (900 μg/mouse of each mAb) 30 hours after CFA injection. […] The magnitude of efficacy (% MPE) was 65.51±12.35% (FIG. 17B).

mice (female BALB/c) = test: Mouse carrageenan-induced inflammatory pain model, thermal hyperalgesia (paw withdrawal latency); type: in vivo; details: for thermal hyperalgesia / antinociceptive effect: Example 8, 48 and 96 hours, single mAb 900 μg, diclofenac 30 mg/kg; for paw withdrawal latency, carrageenan (injured) paw: mAbs 900 μg each at 30 hours, diclofenac 30 mg/kg p.o. 60 minutes before testing
Description: To evaluate whether neutralization of IL-1α and IL-1β produces antinociceptive effects in inflammatory pain conditions, anti-IL-1α and anti-IL-1β mAbs were evaluated for the ability to reverse established pain in the mouse carrageenan paw model of nociceptive pain.
The efficacy of the anti-IL-1α and anti-IL-1β mAbs was evaluated when administered alone or in combination in the mouse carrageenan model (FIG. 15). At 30 hours after intraplantar carrageenan injection: 900 μg of either anti-IL-1α mAb, anti-IL-1β mAb, or their combination were administered in different groups of mice. Thermal hyperalgesia testing was performed 48 and 96 hours after carrageenan. […] The antinociceptive effect in 900 μg combination group was 53±7% at 48 hours, and 82±11% at 96 hours.
Different groups of animals were treated either with vehicle or a combination of anti-IL-1α and anti-IL-1β mAbs (100, 300, or 900 μg/mouse of each mAb) 30 hours after carrageenan injection. […] The antinociceptive effect in 900 μg treatment group was 70±9% at 48 hours, and 62±4% at 96 hours. Diclofenac (30 mg/kg), a non-steroidal, anti-inflammatory analgesic, was included as positive control in the study, and it increased the mean paw withdrawal latency of the injured paw to 7.01±0.58 s at 48 hours and 7.48±0.34 s at 96 hours when administered p.o. 60 minutes before testing (p<0.01 at both time points).

human OA patients = details: literature (Cohen et al., ACR 2007); cited from earlier work
DMM mice = test: DMM model of osteoarthritis, mechanical allodynia (paw withdrawal threshold); type: in vivo, mouse; details: Example 5 (FIG. 12); 6 mg/kg ip twice per week for four weeks; day 28
Description: The DMM model also generates measurable pain in the mice. […] The efficacy of anti-IL-1α/β therapy was studied in the DMM animal model.
The potential of anti-IL-1 therapy to ameliorate pain was tested in the DMM mouse model of OA in terms of mechanical allodynia. Dosing of the combination of IL-1α and IL-1β mAbs was initiated on the day of the surgery and was repeated twice a week for 5 weeks. Animals were treated with PBS vehicle alone, with an IgG isotype control, or with a combination of anti-IL-1α and anti-IL-1β mAbs (at a dose of 6 mg/kg for each mAb). Animals were tested weekly for paw withdrawal threshold. […] This reduction in pain was seen as early as week 1 following treatment (data not shown).
To evaluate the effect of IL-1 therapy in established pain, animals in the IgG control group with established OA and mechanical allodynia were treated on day 35 with the combination of anti-IL-1α and anti-IL-1β monoclonal antibodies and the paw withdrawal threshold was tested 24 hours later (day 36).
The potential of anti-IL-1 therapy to ameliorate pain in the DMM mouse model of OA (see, above) in terms of mechanical allodynia was further evaluated. Dosing of the combination of IL-1α and IL-1β mAbs was initiated on the day of the surgery and was repeated twice a week for 4 weeks. […]

male DBA-1 mice = test: Collagen-induced arthritis mouse model (rheumatoid arthritis); type: in vivo; details: therapeutic mode; 1-3 mg/kg intraperitoneally every other day after disease onset
Description: The therapeutic effects of anti-IL-1α, anti-IL-1β, combined anti-IL-1α/anti-IL-1β, and murine IL-1α/β DVD4-Ig, were evaluated in a collagen-induced arthritis mouse model well known in the art. Briefly, male DBA-1 mice were immunized with bovine type II collagen in CFA at the base of the tail. The mice were boosted with Zymosan intraperitoneally (i.p) at day 21. After disease onset at day 24-27, mice were selected and divided into separate groups of 10 mice each. […] To neutralize IL-1, mice were injected every other day with 1-3 mg/kg of anti-IL-1α mAb, anti-IL-1βmAb, combination of anti-IL-1α and anti-IL-1β mAbs, or murine IL-1α/β DVD4-Ig intraperitoneally. Mice were carefully examined three times a week for the visual appearance of arthritis in peripheral joints, and scores for disease activity determined.

Male SV129 mice = test: Destabilization of medial meniscus (DMM) model of osteoarthritis, cartilage degeneration (Chambers scores); type: in vivo, mouse; details: Example 3.3.6 (FIG. 7); 8 weeks; mAbs 6 mg/kg alone or in combination
Text: (§1) Male SV129 mice weighing approximately 30 grams, housed 5/cage, were anesthetized on Day 0 with ketamine/xylazine cocktail, administered intraperitoneally (ip), and then the medial collateral ligament was exposed by blunt dissection, and transected to reflect the meniscus toward the femur. The joint space was closed with 8-0 vicryl suture. The skin was closed with wound glue. For sham surgeries, a vertical skin incision was made over the medial aspect of the knee and the joint capsule was opened. The capsule was closed with 8-0 vicryl suture and the skin was closed with wound glue. Groups of animals were then treated with intraperitoneal (ip) injections of antibody or vehicle according to the study design table below. Two sex-matched, age-matched, and strain-matched naïve mice were also included in the study. Animals were euthanized after 8 weeks of treatment, and knee joints were harvested in 10% neutral buffered formalin.
Formalin-fixed samples were decalcified, and specimens were sectioned in the frontal plane into 15 step sections each. Each section was approximately 6 μm thick, and step sections were separated by 70 μm. All slides were stained with toluidine blue (T. Blue). Slides were assessed according to the Chambers method (Chambers et al. (2001) Arthritis Rheum 44:1455-65) for cartilage degeneration (see below) by a board-certified veterinary pathologist. Each of the four cartilage surfaces, the medial femoral condyle (MFC), the medial tibial plateau (MTP), the lateral femoral condyle (LFC), and the lateral tibial plateau (LTP), was scored from 0-6 according to the scale in the table below.
as §1, with “8-0 vicryl suture, and the” for “8-0 vicryl suture and the”, “injections of anti-mIL-1α monoclonal antibody, anti-mIL-1β (alone or in combination), mIL-1α/βDVD-Ig binding protein, or vehicle” for “injections of antibody or vehicle”, “design table below (Table 24). Animals were” for “design table below. Two sex-matched, age-matched, and strain-matched naïve mice were also included in the study. Animals were”, “weeks of treatment and knee” for “weeks of treatment, and knee”
Male SV129 mice weighing approximately 30 grams had the medial collateral ligament exposed by blunt dissection, and transected to reflect the meniscus toward the femur. The joint space was closed with 8-0 vicryl suture. The skin was closed with wound glue. For sham surgeries, a vertical skin incision was made over the medial aspect of the knee and the joint capsule was opened. The capsule was closed with 8-0 vicryl suture, and the skin was closed with wound glue. Groups of animals were then treated per os (po) or via intraperitoneal (ip) injections of vehicle or treatments according to the study design table below. Three sex-matched, age-matched, and strain-matched naïve mice were also included in the study. Animals were euthanized after 4 weeks of treatment, and knee joints were harvested in 10% neutral buffered formalin.

NCC1(CC(=O)O)CCCCC1 [gabapentin]
paw withdrawal threshold (von Frey) (mice (male CD1); at 24 hours): 0.858 ± 0.077 g
paw withdrawal threshold (von Frey) (mice (male CD1); at 72 hours): 1.138 ± 0.096 g

O=C(O)Cc1ccccc1Nc1c(Cl)cccc1Cl [Diclofenac]
paw withdrawal threshold, CFA injected paw (female BALB/c mice; mAbs 900 μg/mouse each 30 hours after CFA, 1 hour pretreatment): 0.359 ± 0.088 g
magnitude of efficacy (% MPE) (female BALB/c mice; mAbs 900 μg/mouse each): 64.51±10.20%
thermal hyperalgesia / antinociceptive effect (mice (female BALB/c)): significant attenuation of thermal hyperalgesia
paw withdrawal latency, carrageenan (injured) paw (mice (female BALB/c); Example 9 (FIG. 16A), at 48 hours): 7.01 ± 0.58 s
paw withdrawal latency, carrageenan (injured) paw (mice (female BALB/c); Example 9 (FIG. 16B), at 96 hours): 7.48 ± 0.34 s

Anakinra: IL-1 receptor antagonist
efficacy in OA trials with respect to symptoms and chondroprotection (human OA patients): some efficacy

B1: 9H10: mouse anti-mouse IL-1α monoclonal antibody (clone 9H10) from IL-1α/β double KO mice (antibody, V domains shown)
VH: QVILKESGPGILQPSQTLSLTCSFSGFSLSTYGTAVNWIRQPSGKGLEWLAQIGSDDRKLYNPFLKSRITLSEDTSNSQVFLKITSVDTEDSATYYCANGVMEYWGLGTSVTVSS
VL: SIVMTQTPKFLLVSAGDRVTITCKASQSVNHDVAWYQQMPGQSPKLLIYFASNRYTGVPDRFTGSGYGTDFTFTISTVQAEDLAVYFCQQDYSSPYTFGGGTKLEIKR
modifications: heavy chain variable domain of 9H10; light chain variable domain of 9H10
notes: mouse anti-mouse IL-1α monoclonal antibody (clone 9H10) from IL-1α/β double KO mice
paw withdrawal threshold (allodynia) (DMM mice): allodynic (painful)
thermal hyperalgesia / antinociceptive effect (mice (female BALB/c)): no significant antinociceptive effect
reduction in mean arthritis score compared to control group (male DBA-1 mice): 10%
mean sum Chambers scores and mean maximum Chambers scores (cartilage degeneration) (Male SV129 mice): not statistically significant
